# Data taken from ChEMBL document CHEMBL1201862, “PubChem BioAssay data set” (2004).
# Activity calls are given as the source filed them.
# Tests used:
# Fatty acid synthase [1] = biological target: T1, Fatty acid synthase (Homo sapiens, UniProt P49327); assay: inhibition of human FAS-TE enzyme activity – biochemical, kinetic fluorescence intensity, dose response (AID 624326); type: functional;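 further: rate of fluorescence rise from hydrolysis of a fluorogenic O-methyl fluorescein ester substrate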
# Fatty acid synthase [2] = biological target: T1, Fatty acid synthase; assay: inhibition of human FAS-TE enzyme activity – biochemical, endpoint fluorescence intensity, uHTS hits, dose response (AID 624327); type: functional;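 further: fluorescence from hydrolysis of an O-methyl fluorescein acyl ester substrate by the enzyme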
# [3] = biological target: T2, Polyadenylate-binding protein 1 (Homo sapiens, UniProt P11940); assay: MLLE domain peptide-binding blockers, IC50 – biochemical, fluorescence polarization, FITC-PAM2 peptide, dose response (AID 602259); type: functional; settings: read-out: IC50_Mean
# [4] = biological target: T2, Polyadenylate-binding protein 1; assay: MLLE binding blockers, Cy5 peptide tracer – biochemical, fluorescence polarization, Cy5-PAM2 peptide, secondary, miRNA deadenylation inhibitor project, dose response (AID 602260); type: functional; settings: read-out: IC50_Mean
# H9c2 = assay: cells; type: functional, cell-based; settings: Rattus norvegicus, H9c2, Myocardium;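 further: confirmatory concentration-response retest of ultra-high-throughput screening hits for modulation of myocardial damage; cell death induced by hydrogen peroxide oxidative stress; compound pretreatment for 60 min then peroxide exposure for 2 h; potency is for protecting the cells against peroxide damage rather than for killing them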
# [5] = biological target: T3, Heat shock factor protein 1 (Mus musculus, UniProt P38532); assay: decrease of HSF1-responsive luciferase luminescence – cell-based, NIH3T3, dose retest, confirmation (AID 2382); type: functional;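 further: NIH3T3 fibroblasts with HSF1-driven luciferase reporter stressed by proteasome inhibitor MG132; luminescence from HSF1-driven luciferase expression after 8 hours of MG132 stress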
# T3 sequence (P38532 whole entry): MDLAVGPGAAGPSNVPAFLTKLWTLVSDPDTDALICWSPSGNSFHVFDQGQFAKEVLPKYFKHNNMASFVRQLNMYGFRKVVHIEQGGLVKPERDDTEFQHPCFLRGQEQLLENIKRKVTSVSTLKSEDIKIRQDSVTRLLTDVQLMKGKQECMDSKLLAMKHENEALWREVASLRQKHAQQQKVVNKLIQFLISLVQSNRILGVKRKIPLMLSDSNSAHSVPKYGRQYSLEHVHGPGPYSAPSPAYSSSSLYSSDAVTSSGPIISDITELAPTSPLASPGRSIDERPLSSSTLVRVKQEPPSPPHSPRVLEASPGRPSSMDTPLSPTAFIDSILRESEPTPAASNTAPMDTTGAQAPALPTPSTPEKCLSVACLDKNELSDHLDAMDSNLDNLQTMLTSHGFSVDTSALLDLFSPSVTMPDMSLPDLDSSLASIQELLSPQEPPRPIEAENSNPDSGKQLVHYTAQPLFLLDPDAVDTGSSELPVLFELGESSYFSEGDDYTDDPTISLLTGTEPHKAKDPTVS
# [6] = Luminescence Cell-Based Dose Response HTS to Identify Activators of Luciferase Translation or Activity in H4 […] Cells. [Related pubchem assays: 1829 (Project Summary), 1814 (Primary HTS)]; type: functional
# [7] = Luminescence Cell-Based Dose Confirmation HTS to Identify Activators of 5'UTR Stem-Loop Driven Alpha-Synuclein mRNA Translation in H4 Neuroglioblastoma Cells. [Related pubchem assays: 1829 (Project Summary), 1814 (Primary HTS)]; type: functional
# H4 = assay: Luminescence Cell-Based Dose Response HTS to Identify Activators of 5'UTR Stem-Loop Driven Prion Protein mRNA Translation in H4 Neuroglioblastoma Cells. [Related pubchem assays: 1829 (Project Summary), 1814 (Primary HTS)]; type: functional; settings: Homo sapiens
# T2 sequence (P11940 whole entry, the tested form may be a part): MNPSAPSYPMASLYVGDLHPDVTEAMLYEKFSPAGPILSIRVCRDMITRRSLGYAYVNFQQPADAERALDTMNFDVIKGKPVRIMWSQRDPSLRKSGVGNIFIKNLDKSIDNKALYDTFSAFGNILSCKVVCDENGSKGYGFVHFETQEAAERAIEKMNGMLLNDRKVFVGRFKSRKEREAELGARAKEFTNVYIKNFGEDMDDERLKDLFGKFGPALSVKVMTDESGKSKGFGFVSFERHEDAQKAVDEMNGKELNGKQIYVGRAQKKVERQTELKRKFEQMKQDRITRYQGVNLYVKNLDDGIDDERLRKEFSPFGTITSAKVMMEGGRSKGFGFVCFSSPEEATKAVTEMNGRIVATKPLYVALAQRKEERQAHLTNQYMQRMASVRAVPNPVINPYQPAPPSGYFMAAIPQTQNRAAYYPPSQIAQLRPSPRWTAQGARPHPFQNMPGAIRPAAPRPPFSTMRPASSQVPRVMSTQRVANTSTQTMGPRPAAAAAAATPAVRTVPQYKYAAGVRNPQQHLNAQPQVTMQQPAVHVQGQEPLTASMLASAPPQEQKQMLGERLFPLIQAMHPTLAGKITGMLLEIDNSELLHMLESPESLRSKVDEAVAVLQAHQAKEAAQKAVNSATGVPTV
# T1 sequence (P49327 whole entry): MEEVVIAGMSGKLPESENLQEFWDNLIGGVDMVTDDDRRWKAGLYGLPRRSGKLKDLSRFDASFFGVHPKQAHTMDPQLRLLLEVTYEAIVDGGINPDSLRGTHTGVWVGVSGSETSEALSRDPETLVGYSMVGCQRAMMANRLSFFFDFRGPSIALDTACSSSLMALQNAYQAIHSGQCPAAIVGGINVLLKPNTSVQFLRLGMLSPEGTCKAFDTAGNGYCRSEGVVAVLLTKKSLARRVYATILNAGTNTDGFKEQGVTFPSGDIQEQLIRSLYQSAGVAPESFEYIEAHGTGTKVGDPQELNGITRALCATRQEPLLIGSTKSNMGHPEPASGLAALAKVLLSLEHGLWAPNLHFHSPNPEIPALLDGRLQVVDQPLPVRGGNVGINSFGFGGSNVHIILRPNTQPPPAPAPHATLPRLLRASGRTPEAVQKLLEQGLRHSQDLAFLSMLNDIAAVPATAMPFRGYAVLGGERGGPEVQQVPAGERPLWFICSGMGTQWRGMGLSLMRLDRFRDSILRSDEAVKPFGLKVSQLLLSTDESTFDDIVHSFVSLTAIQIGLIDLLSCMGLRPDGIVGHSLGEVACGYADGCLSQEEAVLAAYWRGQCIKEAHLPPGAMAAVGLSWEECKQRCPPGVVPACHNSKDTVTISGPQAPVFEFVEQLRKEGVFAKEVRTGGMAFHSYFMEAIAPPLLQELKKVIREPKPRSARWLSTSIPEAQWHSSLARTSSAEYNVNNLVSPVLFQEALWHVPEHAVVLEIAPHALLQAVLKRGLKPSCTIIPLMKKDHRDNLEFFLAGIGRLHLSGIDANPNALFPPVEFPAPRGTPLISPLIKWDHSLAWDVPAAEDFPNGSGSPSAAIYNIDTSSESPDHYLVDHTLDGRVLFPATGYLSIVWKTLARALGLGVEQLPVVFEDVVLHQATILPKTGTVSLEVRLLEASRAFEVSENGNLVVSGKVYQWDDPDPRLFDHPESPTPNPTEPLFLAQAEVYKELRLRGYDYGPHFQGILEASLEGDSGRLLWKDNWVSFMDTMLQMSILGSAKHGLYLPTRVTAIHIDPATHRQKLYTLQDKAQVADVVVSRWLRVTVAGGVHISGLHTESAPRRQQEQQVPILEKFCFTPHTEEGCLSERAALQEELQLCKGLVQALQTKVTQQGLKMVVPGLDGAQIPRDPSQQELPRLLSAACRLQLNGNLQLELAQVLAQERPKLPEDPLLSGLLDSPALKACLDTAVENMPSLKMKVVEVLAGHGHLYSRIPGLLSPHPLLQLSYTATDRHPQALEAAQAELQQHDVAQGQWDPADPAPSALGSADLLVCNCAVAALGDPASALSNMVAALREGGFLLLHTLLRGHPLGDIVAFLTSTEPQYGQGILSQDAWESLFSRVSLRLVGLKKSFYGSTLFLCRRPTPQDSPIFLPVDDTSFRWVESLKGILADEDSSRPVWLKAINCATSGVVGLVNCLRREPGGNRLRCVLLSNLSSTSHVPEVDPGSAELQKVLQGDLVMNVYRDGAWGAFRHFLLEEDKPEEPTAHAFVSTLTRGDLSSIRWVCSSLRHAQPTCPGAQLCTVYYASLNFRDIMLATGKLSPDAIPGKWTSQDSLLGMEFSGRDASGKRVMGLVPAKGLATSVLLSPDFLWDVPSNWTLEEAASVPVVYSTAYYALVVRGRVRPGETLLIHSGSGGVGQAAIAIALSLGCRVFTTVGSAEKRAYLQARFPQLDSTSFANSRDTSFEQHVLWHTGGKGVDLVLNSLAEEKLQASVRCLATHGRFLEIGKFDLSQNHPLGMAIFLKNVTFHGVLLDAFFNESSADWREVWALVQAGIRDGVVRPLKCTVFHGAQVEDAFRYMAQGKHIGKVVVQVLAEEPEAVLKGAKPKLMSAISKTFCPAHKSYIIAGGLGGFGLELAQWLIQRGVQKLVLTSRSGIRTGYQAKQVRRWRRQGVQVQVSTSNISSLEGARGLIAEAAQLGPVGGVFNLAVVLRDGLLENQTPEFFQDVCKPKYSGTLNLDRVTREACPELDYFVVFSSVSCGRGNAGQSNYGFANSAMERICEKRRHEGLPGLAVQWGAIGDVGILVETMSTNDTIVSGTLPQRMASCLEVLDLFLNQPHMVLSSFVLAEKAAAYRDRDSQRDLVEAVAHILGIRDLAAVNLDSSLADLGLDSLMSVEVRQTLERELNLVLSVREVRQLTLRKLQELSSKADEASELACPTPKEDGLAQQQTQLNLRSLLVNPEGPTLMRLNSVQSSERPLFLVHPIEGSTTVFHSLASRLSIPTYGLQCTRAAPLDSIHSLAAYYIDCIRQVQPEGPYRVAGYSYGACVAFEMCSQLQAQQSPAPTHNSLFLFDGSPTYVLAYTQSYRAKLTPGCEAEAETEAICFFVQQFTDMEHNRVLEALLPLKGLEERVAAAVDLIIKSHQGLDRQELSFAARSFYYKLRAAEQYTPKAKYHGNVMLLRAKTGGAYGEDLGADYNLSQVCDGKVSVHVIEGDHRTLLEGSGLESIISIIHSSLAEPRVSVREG
smiles,measurement,setting,value
COC(=O)c1cc(C(=O)OCC(=O)c2ccc3c(c2)NC(=O)CO3)cc([N+](=O)[O-])c1,IC50,Fatty acid synthase [1],30.9 µM (inactive)
same,IC50,Fatty acid synthase [2],13.6 µM (active)
COc1ccc(OC)c(S(=O)(=O)N2CCCCC2C(=O)N2CCN(c3ccccn3)CC2)c1 (stereo not given),IC50,[3],> 66 µM (inactive)
same,IC50,[4],> 66 µM (inactive)
Cc1cc(C)nc(SCNC(=O)c2ccc(Cl)cc2)n1,IC50,[3],> 66 µM (inactive)
same,IC50,[4],> 66 µM (inactive)
NS(=O)(=O)c1ccc(CCNC(=O)c2ccc(C#CC3(O)CCCCC3)cc2)cc1,IC50,H9c2,> 79 µM (inactive)
same,EC50,[5],7.97 µM (active)
Cc1nc2c(cc(Oc3ccc(S(=O)(=O)N4CCOCC4)cn3)c3ccsc32)s1,EC50,[6],15.5 µM (active)
same,EC50,[7],10.2 µM (active)
same,EC50,H4,> 120 µM (not active)
O=C1c2ccccc2NC(c2ccccc2O)N1NS(=O)(=O)c1ccccc1 (stereo not given),EC50,[6],> 60 µM (not active)
same,EC50,[7],> 120 µM (not active)
same,EC50,H4,> 120 µM (not active)
Cc1ccc(-c2csc(N3CCC[C@@H]3C(=O)NCCn3c(-c4ccncc4)nc4ccccc43)n2)cc1,IC50,H9c2,> 79 µM (inactive)
CC1(C(=O)NC(=S)N(CCC#N)c2ccccc2)CC1(Cl)Cl (stereo not given),IC50,[3],> 66 µM (inactive)
same,IC50,[4],> 66 µM (inactive)
O=C(NCC(=O)N(Cc1cccs1)C(C(=O)NC1CCCC1)c1ccco1)c1cccs1 (stereo not given),IC50,H9c2,> 79 µM (inactive)
O=C(NC1CCCCCC1)C(=S)N1CCOCC1,IC50,[3],> 66 µM (inactive)
same,IC50,[4],> 66 µM (inactive)
NC(=NOC(=O)CCC1CCCCC1)c1cccc([N+](=O)[O-])c1,IC50,Fatty acid synthase [1],6 µM (active)
same,IC50,Fatty acid synthase [2],6.09 µM (active)
CC(=O)Nc1ccc(NC(=S)NC(=O)c2ccc([N+](=O)[O-])cc2)cc1,IC50,[3],> 66 µM (inactive)
same,IC50,[4],> 66 µM (inactive)
CN(C(=O)CSc1nncc2ccccc12)C1CCCCC1,EC50,[6],14.1 µM (active)
same,EC50,[7],10.5 µM (active)
same,EC50,H4,13.1 µM (active)
COCCOC(=O)C1=C(C)NC(=O)NC1c1c(Cl)nc2ccccn2c1=O (stereo not given),IC50,[3],> 66 µM (inactive)
same,IC50,[4],> 66 µM (inactive)
COc1cccc(C2C(C#N)=C(N)OC(C(C)(C)C)=C2C#N)c1 (stereo not given),EC50,[6],> 120 µM (not active)
same,EC50,[7],> 120 µM (not active)
same,EC50,H4,> 120 µM (not active)
O=C(Cc1cccc(C(F)(F)F)c1)OCN1C(=O)c2ccccc2C1=O,IC50,Fatty acid synthase [1],11.6 µM (active)
same,IC50,Fatty acid synthase [2],16.8 µM (active)
CSc1ccc(CC(=O)N2CCC(n3nccc3NC(=O)C3CC3)CC2)cc1,EC50,[6],4.85 µM (active)
same,EC50,[7],15.2 µM (active)
same,EC50,H4,> 120 µM (not active)
Cc1nn(C)cc1C(C(=O)NC1CCCCC1)N(C(=O)Cc1cccs1)c1ccc(C(C)C)cc1 (stereo not given),IC50,Fatty acid synthase [1],4.06 µM (active)
same,IC50,Fatty acid synthase [2],8.86 µM (active)
O=c1c2ccccc2oc2nc(-c3ccco3)n(Cc3ccccc3)c(=O)c12,IC50,H9c2,> 79 µM (inactive)
